ChEMBL document CHEMBL3407417 (J Med Chem, 2015)
≈ marks a conversion by molar mass, not a printed value.

Experiments:
cells [1] = conditions: Homo sapiens, PC-14, 72 h
Description: Antiproliferative activity against human PC14 cells after 72 hrs by WST8 assay

cells [2] = conditions: Homo sapiens, LU-99A, 72 h
Description: Antiproliferative activity against human LU99A cells after 72 hrs by WST8 assay

cells [3] = conditions: Homo sapiens, HCT-15, 72 h
Description: Antiproliferative activity against human HCT15 cells after 72 hrs by WST8 assay

NCI-H358 = experiment: Antiproliferative activity against human NCI-H358 cells after 72 hrs by WST8 assay; type: functional, cell-based; conditions: NCI-H358, 72 h
cells [4] = conditions: Homo sapiens, Lu116, 72 h
Description: Antiproliferative activity against human Lu116 cells after 72 hrs by WST8 assay

cells [5] = conditions: Homo sapiens, MKN-45, 72 h
Description: Antiproliferative activity against human MKN45 cells after 72 hrs by WST8 assay

HT-29 = experiment: cells; conditions: Homo sapiens, HT-29, 72 h
Description: Antiproliferative activity against human HT-29 cells after 72 hrs by WST8 assay

cells [6] = conditions: Homo sapiens, MIA PaCa-2, 72 h
Description: Antiproliferative activity against human MIAPaCa2 cells after 72 hrs by WST8 assay

MRC5 = experiment: Antiproliferative activity against human MRC5 cells after 72 hrs by WST8 assay; type: cell-based; conditions: MRC5, 72 h
cells [7] = conditions: Homo sapiens, HL-60, 72 h
Description: Antiproliferative activity against human HL60 cells after 72 hrs by WST8 assay

cells [8] = conditions: Homo sapiens, GSS, 72 h
Description: Antiproliferative activity against human GSS cells after 72 hrs by WST8 assay

cells [9] = conditions: Homo sapiens, LC-2-ad, 72 h
Description: Antiproliferative activity against human LC2/ad cells after 72 hrs by WST8 assay

cells [10] = conditions: Homo sapiens, HCT-116, 72 h
Description: Antiproliferative activity against human HCT116 cells after 72 hrs by WST8 assay

[11] = Thermodynamic solubility of the compound in buffer containing 20 mmol/L of sodium taurocholate at pH 6.8; type: physicochemical; conditions: buffer containing 20 mmol/L sodium taurocholate, read-out: Therm_solubility
[12] = Oral bioavailability in Sprague-Dawley rat at 1 mg/kg; type: ADME, organism-based; conditions: in vivo
[13] = Stability in rat liver microsomes assessed as compound remaining after 30 mins; type: ADME; conditions: read-out: Stability
[14] = Volume of distribution at steady state in Sprague-Dawley rat at 0.5 mg/kg, iv; type: ADME, organism-based; design: dose 0.5 mg/kg, route intravenous; conditions: in vivo, read-out: Vdss
[15] = Plasma clearance in Sprague-Dawley rat at 0.5 mg/kg, iv; type: ADME, organism-based; design: dose 0.5 mg/kg, route intravenous
[16] = AUC in Sprague-Dawley rat at 1 mg/kg, po; type: ADME, organism-based; design: dose 1 mg/kg, route oral; conditions: plasma
[17] = Cmax in Sprague-Dawley rat at 1 mg/kg, po; type: ADME, organism-based; design: dose 1 mg/kg, route oral; conditions: in vivo
NCI-H460 [18] = experiment: cells; conditions: Homo sapiens, NCI-H460, 72 h
Description: Antiproliferative activity against human NCI-H460 cells after 72 hrs by WST8 assay

[19] = Tmax in BALB/c AJcl-nu/nu mouse at 100 mg/kg, po; type: ADME, organism-based; design: dose 100 mg/kg, route oral; conditions: in vivo
Mus musculus [20] = experiment: Toxicity in human NCI-H460 cells xenografted nude mouse assessed as body weight loss at 5 mg/kg, po qd for 2 weeks relative to control; type: organism-based; design: dose 5 mg/kg, route oral; conditions: in vivo, 336 h
[21] = AUC in BALB/c AJcl-nu/nu mouse at 10 mg/kg, po; type: ADME, organism-based; design: dose 10 mg/kg, route oral; conditions: plasma
[22] = AUC in BALB/c AJcl-nu/nu mouse at 100 mg/kg, po; type: ADME, organism-based; design: dose 100 mg/kg, route oral; conditions: plasma
NCI-H460 [23] = experiment: Antitumor activity against human NCI-H460 cells xenografted in nude mouse assessed as tumor growth inhibition at 10 mg/kg, po qd for 2 weeks relative to control; type: functional
NCI-H460 [24] = experiment: Antitumor activity against human NCI-H460 cells xenografted in nude mouse assessed as tumor growth inhibition at 5 mg/kg, po qd for 2 weeks relative to control; type: functional
NCI-H460 [25] = experiment: Antitumor activity against human NCI-H460 cells xenografted in nude mouse assessed as tumor growth inhibition at 2.5 mg/kg, po qd for 2 weeks relative to control; type: functional
Mus musculus [26] = experiment: Toxicity in human NCI-H460 cells xenografted nude mouse assessed as body weight loss at 2.5 mg/kg, po qd for 2 weeks relative to control; type: organism-based; design: dose 2.5 mg/kg, route oral; conditions: in vivo, 336 h
Mus musculus [27] = experiment: Toxicity in human NCI-H460 cells xenografted nude mouse assessed as mortality at 5 to 10 mg/kg, po qd for 2 weeks relative to control; type: organism-based; design: dose 5-10 mg/kg, route oral; conditions: in vivo, 336 h
[28] = Tmax in BALB/c AJcl-nu/nu mouse at 10 mg/kg, po; type: ADME, organism-based; design: dose 10 mg/kg, route oral; conditions: in vivo
[29] = Cmax in BALB/c AJcl-nu/nu mouse at 100 mg/kg, po; type: ADME, organism-based; design: dose 100 mg/kg, route oral; conditions: in vivo
Plasma = experiment: Fraction unbound in rat plasma; type: ADME, cell-free
[30] = Cmax in BALB/c AJcl-nu/nu mouse at 10 mg/kg, po; type: ADME, organism-based; design: dose 10 mg/kg, route oral; conditions: in vivo
Mus musculus [31] = experiment: Toxicity in human NCI-H460 cells xenografted nude mouse assessed as body weight loss at 10 mg/kg, po qd for 2 weeks relative to control; type: organism-based; design: dose 10 mg/kg, route oral; conditions: in vivo, 336 h
A549 = experiment: cells; conditions: Homo sapiens, A549, 72 h

SMILES	solubility thermodynamic [11] [µg/mL]	bioavailability [12] [%]	remaining at 0.5 h [13] [%]	Vd [14] [L/kg]	clearance [15] [mL/min/kg]	AUC [16] [ng·h/mL]	Cmax [17] [ng/mL]	also measured
COc1cc(Nc2ncc3c(n2)-c2ccc(Cl)cc2C(c2c(F)cccc2OC)=NC3)ccc1C(=O)O [ALISERTIB]								IC50 (cells [1]): 170 nM; IC50 (cells [2]): 62 nM; IC50 (cells [3]): 740 nM; IC50 (NCI-H358): 100 nM; IC50 (cells [4]): 97 nM; IC50 (cells [5]): 93 nM; IC50 (HT-29): 330 nM; IC50 (cells [6]): 130 nM; IC50 (MRC5): > 10000 nM; IC50 (cells [7]): 74 nM; IC50 (cells [8]): 39 nM; IC50 (cells [9]): 77 nM; IC50 (cells [10]): 95 nM
O=C(NC1CC1)c1ccc(-c2cnc3c(NCC4CCOCC4)cc(Oc4ccccc4O)nn23)cc1	1.3 (≈ 2.6 µM)	0	21	2.2	78			
CC(C)(C)Nc1cc(NCC2CCOCC2)c2ncc(-c3ccc(C(=O)NC4CC4)cc3)n2n1	63 (≈ 136 µM)	36	59	1.7	16	377	50	
N#Cc1ccc(-c2cc(NCC3CCOCC3)c3ncc(-c4ccc(C(=O)NC5CC5)cc4)n3n2)cc1	0.49 (≈ 0.995 µM)	0	42	4.2	38			
CC(=O)O[C@H]1C(=O)[C@@]2(C)[C@H]([C@H](OC(=O)c3ccccc3)[C@]3(O)C[C@H](OC(=O)[C@H](O)[C@@H](NC(=O)c4ccccc4)c4ccccc4)C(C)=C1C3(C)C)[C@]1(OC(C)=O)CO[C@@H]1C[C@@H]2O [PACLITAXEL]								IC50 (cells [1]): 4.4 nM; IC50 (cells [2]): 5.2 nM; IC50 (cells [3]): 240 nM; IC50 (NCI-H358): 7.9 nM; IC50 (cells [4]): 5.1 nM; IC50 (cells [5]): 4 nM; IC50 (NCI-H460 [18]): 10 nM; IC50 (HT-29): 7 nM; IC50 (cells [6]): 6.1 nM; IC50 (MRC5): 80 nM; IC50 (cells [7]): 7.9 nM; IC50 (cells [8]): 3.4 nM; IC50 (cells [9]): 2.5 nM; IC50 (cells [10]): 6.1 nM
CC(C)(Nc1cc(NCC2CCOCC2)c2ncc(-c3ccc(C(=O)NC4CC4)cc3)n2n1)C(F)(F)F	29 (≈ 56.1 µM)	24	41	1.3	11	360	38	Tmax [19]: 60 min; Activity (Mus musculus [20]): 25%; AUC [21]: 8000 ng·h/mL; AUC [22]: 48500 ng·h/mL; T/C (NCI-H460 [23]): 19%; T/C (NCI-H460 [24]): 40%; T/C (NCI-H460 [25]): 57%; Activity (Mus musculus [26]): Non-toxic; Activity (Mus musculus [27]): Toxic; Tmax [28]: 30 min; Cmax [29]: 14000 ng/mL; Fu (Plasma): 0.51%; Cmax [30]: 2430 ng/mL; Activity (Mus musculus [31]): 32%
O=C(NC1CC1)c1ccc(-c2cnc3c(NCC4CCOCC4)cc(Oc4ccccc4F)nn23)cc1	8 (≈ 16 µM)	16	39	2	22	126	16	
O=C(NC1CC1)c1ccc(-c2cnc3c(NCC4CCOCC4)cc(OC4CCCCC4)nn23)cc1	10 (≈ 20.4 µM)	23	55	1.6	8.7	439	33	
O=C(NC1CC1)c1ccc(-c2cnc3c(NCC4CCOCC4)nccn23)cc1								IC50 (A549): 1500 nM
N#Cc1ccc(-c2cn3c(-c4ccc(C(=O)NC5CC5)cc4)cnc3c(NCC3CCOCC3)n2)cc1	1 (≈ 2.03 µM)	0	0	5	145			
N#Cc1ccc(-c2cc(NCC3CCOCC3)c3ncc(-c4ccc(C(=O)NC5CC5)cc4)n3n2)c(N)c1	2.6 (≈ 5.12 µM)	0	59	2	23			
